For 17 molecules, IC50 results are on record in US12060349B2, “Glucosylceramide synthase inhibitors” (Genzyme Corporation, priority 2012, dated 2024).

Read-outs that look alike come from different tables or passages of the source. Bounds are passed on as bounds.

Experiment [1] has as its target T1, glucosylceramide synthase (Homo sapiens, UniProt Q16739).
T1 construct: Microsomes were isolated from A375 human melanoma cells; endogenous in cells; host or cells: A375 human melanoma cells (microsomal fraction, 100,000 g pellet)
T1 sequence (Q16739 1-394): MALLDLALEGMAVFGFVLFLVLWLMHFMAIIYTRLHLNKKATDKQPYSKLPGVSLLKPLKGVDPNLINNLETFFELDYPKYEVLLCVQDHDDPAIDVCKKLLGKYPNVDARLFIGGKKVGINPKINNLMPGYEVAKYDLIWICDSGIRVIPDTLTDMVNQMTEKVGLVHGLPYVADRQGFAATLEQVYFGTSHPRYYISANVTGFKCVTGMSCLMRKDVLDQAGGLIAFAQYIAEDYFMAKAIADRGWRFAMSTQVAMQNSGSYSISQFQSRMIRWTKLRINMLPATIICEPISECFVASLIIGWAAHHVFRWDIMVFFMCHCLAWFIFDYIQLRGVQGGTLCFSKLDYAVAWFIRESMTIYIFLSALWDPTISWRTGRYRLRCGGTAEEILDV
The experiment is described as follows: microsomal assay measuring conversion of ceramide to glucosylceramide by HPLC (GCS IC50). To be noted: concentration causing 50% inhibition of glucosylceramide synthase activity. In kind it is biochemical. An outline of the steps:
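IC50 is the compound concentration halving glucosylceramide synthase activity. Activity was measured in microsomes, with HPLC quantifying glucosylceramide formed from ceramide.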

Experiment [2] relates to GM3 expression on the cell surface, B16 mouse melanoma cells. The experiment is described as follows: cell based phenotypic assay, cell surface GM3 by antibody mediated immunofluorescence, B16 (GM3 B16 IC50). To be noted: 50% inhibition of GM3 expression on the cell surface. Put shortly: (§1)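 B16 mouse and C32 human melanoma cells; cell-surface GM3 measured by antibody-mediated immunofluorescence, giving IC50.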

Another experiment has as its system C32 human melanoma cells. The experiment is described as follows: cell viability in the C32 cell-based assay (Viability, C32 IC50). To be noted: concentration causing 50% cell death, values greater than 10 represent a lack of cell death. Put shortly: (§2)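 Viability readouts were run alongside the GM3 cell-surface assay in the same B16 and C32 cultures. A figure above 10 indicates no cell death.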

Experiment [3] concerns GM3 expression on the cell surface, C32 human melanoma cells. In words: cell based phenotypic assay, cell surface GM3 by antibody mediated immunofluorescence, C32 (GM3 C32 IC50). To be noted: 50% inhibition of GM3 expression on the cell surface. Put shortly:
as §1

Another experiment relates to B16 mouse melanoma cells. The experiment is described as follows: cell viability in the B16 cell-based assay (Viability, B16 IC50). An outline of the steps: as §2
The mark [4] stands for this setting: B16 mouse melanoma cells, read-out: GM3 B16 IC50.
Setting [5] is: C32 cells, read-out: Viability, C32 IC50.
[6] abbreviates: C32 human melanoma cells, read-out: GM3 C32 IC50.
[7] abbreviates: Mus musculus, B16, B16 cells, concentration causing 50% cell death, values greater than 10 represent a lack of cell death, read-out: Viability, B16 IC50.
[8] abbreviates: Mus musculus, B16 mouse melanoma cells, read-out: GM3 B16 IC50.
[9] abbreviates: Homo sapiens, C32, C32 cells, read-out: Viability, C32 IC50.
The mark [10] stands for this setting: Homo sapiens, C32 human melanoma cells, read-out: GM3 C32 IC50.
[11] abbreviates: Mus musculus, read-out: GM3 B16 IC50, B16 mouse melanoma cells.
Setting [12] is: Homo sapiens, C32, read-out: Viability, C32 IC50, C32 cells.
The mark [13] stands for this setting: Homo sapiens, read-out: GM3 C32 IC50, C32 human melanoma cells.
Setting [14] is: Mus musculus, B16, read-out: Viability, B16 IC50.

The IC50 is the concentration that gives 50% inhibition. Turning to `CC1(NC(=O)C2CCN(c3cncc(-c4ccc(F)cc4)n3)CC2)CCN2CCC1CC2` (single isomer, unassigned) [Example 47, 1-(6-(4-Fluorophenyl)pyrazin-2-yl)-N-(4-methyl-1-azabicyclo[3.2.2]nonan-4-yl)piperidine-4-carboxamide], the IC50 in experiment [1] was found to be 258 nM; in experiment [2] (setting [4]), 2190 nM; in the experiment with C32 human melanoma cells (setting [5]) it was 3160 nM; in experiment [3] (setting [6]), 50 nM; with B16 mouse melanoma cells (setting [7]), 7830 nM.

Consider `COCc1ccc(-c2ccnc(N3CCC(F)(C(=O)NC4(C)CCN5CCC4CC5)CC3)n2)cc1` (stereo not shown) [Example 75, 4-Fluoro-1-(4-(4-(methoxymethyl)phenyl)pyrimidin-2-yl)-N-(4-methyl-1-azabicyclo[3.2.2]nonan-4-yl)piperidine-4-carboxamide], for which the IC50 was 2.83 nM in experiment [1]; 48.9 nM in experiment [2] (setting [8]); 316 nM with C32 human melanoma cells (setting [9]); 0.383 nM in experiment [3] (setting [10]); 5270 nM in the experiment on B16 mouse melanoma cells (setting [7]).

On to `CCCC1(NC(=O)NC(C)(C)C#Cc2ccc(COC)cc2)CN2CCC1CC2` (stereo not shown) [Example 328, 1-(4-(4-(Methoxymethyl)phenyl)-2-methylbut-3-yn-2-yl)-3-(3-propylquinuclidin-3-yl)urea], for which the IC50 in experiment [1] stood at 25.1 nM; in experiment [2] (setting [8]) it was 115 nM; in the experiment on C32 human melanoma cells (setting [9]), 3160 nM; in experiment [3] (setting [10]) it was 3.32 nM; with B16 mouse melanoma cells (setting [7]), 3160 nM.

With `CC1(NC(=O)C2(F)CCN(c3nccc(OCc4ccc(F)cc4)n3)CC2)CN2CCC1CC2` (stereo not shown) [Example 125, 4-Fluoro-1-(4-((4-fluorobenzyl)oxy)pyrimidin-2-yl)-N-(3-methylquinuclidin-3-yl)piperidine-4-carboxamide], the IC50 was determined as 0.643 nM in experiment [1]; 17.7 nM in experiment [2] (setting [8]); 158 nM in the experiment with C32 human melanoma cells (setting [9]); 0.0509 nM in experiment [3] (setting [10]); 4290 nM with B16 mouse melanoma cells (setting [7]).

In the case of `COCCOCc1ccc(-c2ccc(C(C)(C)NC(=O)NC3(C)CN4CCC3CC4)cc2)cc1` (stereo not shown) [Example 198, 1-(2-(4′-((2-Methoxyethoxy)methyl)-[1,1′-biphenyl]-4-yl)propan-2-yl)-3-(3-methylquinuclidin-3-yl)urea], the IC50 in experiment [1] is 25.2 nM; in experiment [2] (setting [8]), 118 nM; in the experiment with C32 human melanoma cells (setting [9]), not below 10000 nM; in experiment [3] (setting [10]), 3.24 nM; in the experiment on B16 mouse melanoma cells (setting [7]), not below 10000 nM.

Consider `COCCOc1ccc(-c2cccc(C(C)(C)NC(=O)OC3CCN4CCC3CC4)c2)nc1` (stereo not shown) [Example 311, 1-Azabicyclo[3.2.2]nonan-4-yl 2-(3-(5-(2-methoxyethoxy)pyridin-2-yl)phenyl)propan-2-ylcarbamate], for which the IC50 was 76 nM in experiment [1]; 103 nM in experiment [2] (setting [8]); 3160 nM in the experiment with C32 human melanoma cells (setting [9]); 8.5 nM in experiment [3] (setting [10]); not below 10000 nM in the experiment with B16 mouse melanoma cells (setting [7]).

Turning to `CC(C)(NC(=O)NC1(C)CN2CCC1CC2)c1ccc(-c2ccc(OCCn3ccnn3)cc2)cc1` (stereo not shown) [Example 183, 1-(2-(4′-(2-(1H-1,2,3-Triazol-1-yl)ethoxy)-[1,1′-biphenyl]-4-yl)propan-2-yl)-3-(3-methylquinuclidin-3-yl)urea], the IC50 stood at 31.6 nM in experiment [1]; 969 nM in experiment [2] (setting [8]); 2510 nM with C32 human melanoma cells (setting [9]); 10.2 nM in experiment [3] (setting [10]); 5620 nM with B16 mouse melanoma cells (setting [7]).

Regarding `COCCOc1cc(-c2ccc(F)cc2)nc(N2CCC(C(=O)NC3(C)CCN4CCC3CC4)CC2)n1` (stereo not shown) [Example 105, 1-(4-(4-Fluorophenyl)-6-(2-methoxyethoxy)pyrimidin-2-yl)-N-(4-methyl-1-azabicyclo[3.2.2]nonan-4-yl)piperidine-4-carboxamide], the IC50 turned out to be 10.5 nM in experiment [1]; 272 nM in experiment [2] (setting [8]); 1000 nM in the experiment with C32 human melanoma cells (setting [9]); 2 nM in experiment [3] (setting [10]); 3660 nM with B16 mouse melanoma cells (setting [7]).

For the molecule `COCCOCc1ccc(-c2ccc(C3(NC(=O)N[C@]4(C)CN5CCC4CC5)CC3)cc2)cc1` [Example 210, (S)-1-(1-(4′-((2-Methoxyethoxy)methyl)-[1,1′-biphenyl]-4-yl)cyclopropyl)-3-(3-methylquinuclidin-3-yl)urea], the IC50 in experiment [1] is 50.2 nM; in experiment [2] (setting [8]) it was 87 nM; with C32 human melanoma cells (setting [9]), not below 10000 nM; in experiment [3] (setting [10]) it was 3.34 nM; in the experiment on B16 mouse melanoma cells (setting [7]), not below 10000 nM.

As to `COCCOCc1ccc(-c2ccnc(N3CCC(F)(C(=O)NC4(C)CN5CCC4CC5)CC3)n2)cc1` (stereo not shown) [Example 83, 4-Fluoro-1-(4-(4-((2-methoxyethoxy)methyl)phenyl)pyrimidin-2-yl)-N-(3-methylquinuclidin-3-yl)piperidine-4-carboxamide], the IC50 was 13.4 nM in experiment [1]; 119 nM in experiment [2] (setting [8]); 1000 nM in the experiment on C32 human melanoma cells (setting [9]); 1.13 nM in experiment [3] (setting [10]); not below 10000 nM in the experiment with B16 mouse melanoma cells (setting [7]).

In the case of `COCCOc1ccc(-c2nc(C(C)(C)NC(=O)N3CCN4CCC3CC4)cs2)cc1` [Example 345, N-(2-(2-(4-(2-Methoxyethoxy)phenyl)thiazol-4-yl)propan-2-yl)-1,4-diazabicyclo[3.2.2]nonane-4-carboxamide], the IC50 is 2540 nM in experiment [1]; 369 nM in experiment [2] (setting [8]); 3160 nM in the experiment on C32 human melanoma cells (setting [9]); 91 nM in experiment [3] (setting [10]); not below 10000 nM with B16 mouse melanoma cells (setting [7]).

Take `CC1(NC(=O)C2CCN(c3cncc(-c4ccc(F)cc4)n3)CC2)CCN2CCC1CC2` (single isomer, unassigned) [Example 48, 1-(6-(4-Fluorophenyl)pyrazin-2-yl)-N-(4-methyl-1-azabicyclo[3.2.2]nonan-4-yl)piperidine-4-carboxamide]: the IC50 in experiment [1] came out at 1.61 nM; in experiment [2] (setting [4]), 47.7 nM; with C32 human melanoma cells (setting [5]), 5.17 nM; in experiment [3] (setting [6]), 0.096 nM; in the experiment with B16 mouse melanoma cells (B16 cells, concentration causing 50% cell death, values greater than 10 represent a lack of cell death, read-out: Viability, B16 IC50), 7760 nM.

Regarding `COCCCOc1cnc(-c2cccc(C(C)(C)NC(=O)OC3CN4CCC3CC4)c2)cn1` (stereo not shown) [Example 315, Quinuclidin-3-yl (2-(3-(5-(3-methoxypropoxy)pyrazin-2-yl)phenyl)propan-2-yl)carbamate], the IC50 is 197 nM in experiment [1]; 435 nM in experiment [2] (setting [11]); 1000 nM in the experiment with C32 human melanoma cells (setting [12]); 25.9 nM in experiment [3] (setting [13]); not below 10000 nM with B16 mouse melanoma cells (setting [14]).

As to `CC(C)(NC(=O)OC1CN2CCC1CC2)c1cccc(Oc2cccc(C(=O)N3CCOCC3)c2)c1` (stereo not shown) [Example 279, Quinuclidin-3-yl 2-(3-(3-(morpholine-4-carbonyl)phenoxy)phenyl)propan-2-ylcarbamate], the 50% inhibitory concentration (IC50) was 4330 nM in experiment [1]; 3920 nM in experiment [2] (setting [11]); 3160 nM in the experiment with C32 human melanoma cells (setting [12]); 217 nM in experiment [3] (setting [13]); not below 10000 nM in the experiment with B16 mouse melanoma cells (setting [14]).

For `CC(C)(NC(=O)OC1CCN2CCC1CC2)c1ccc(-c2ccc(CCc3c[nH]nn3)cc2)cc1` (stereo not shown) [Example 228, 1-Azabicyclo[3.2.2]nonan-4-yl (2-(4′-(2-(1H-1,2,3-triazol-4-yl)ethyl)-[1,1′-biphenyl]-4-yl)propan-2-yl)carbamate], the IC50 in experiment [1] turned out to be 18.2 nM; in experiment [2] (setting [8]), 80.8 nM; in the experiment with C32 human melanoma cells (setting [9]), 3160 nM; in experiment [3] (setting [10]) it was 6.08 nM; in the experiment with B16 mouse melanoma cells (setting [7]), 7650 nM.

As for `O=C(OC1CC2CCN(CC2)C1)N1CCN(c2cccc(-c3ccccc3)c2)CC1` (stereo not shown) [Example 20, 1-Azabicyclo[3.2.2]nonan-3-yl 4-([1,1′-biphenyl]-3-yl)piperazine-1-carboxylate], the IC50 in experiment [1] was 16600 nM; in experiment [2] (setting [8]), 4470 nM; with C32 human melanoma cells (setting [9]), not below 15100 nM; in experiment [3] (setting [10]), 10700 nM; with B16 mouse melanoma cells (setting [7]), 7710 nM.

Regarding `CC1(NC(=O)C2CCN(c3nccc(-c4ccc(F)cc4)n3)CC2)CN2CCC1CC2` (stereo not shown) [Example 44, 1-(4-(4-Fluorophenyl)pyrimidin-2-yl)-N-(3-methylquinuclidin-3-yl)piperidine-4-carboxamide], the IC50 in experiment [1] came to 1.24 nM; in experiment [2] (setting [8]), 49.9 nM; in the experiment on C32 human melanoma cells (setting [9]), 316 nM; in experiment [3] (setting [10]), 0.205 nM; in the experiment on B16 mouse melanoma cells (setting [7]), 9270 nM.
